Among the data in PubChem BioAssay (NCI) are GI50 and TGI values, retold here.

Where “and” joins values, the source holds several entries; their conditions need not be identical. Equal values may be shown once.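 The compound was tested at five concentrations on cells cultured in 96-well plates, with a 48-hour exposure period. GI50 is the concentration that inhibits growth by half. Definition used: TGI = concentration required for complete inhibition of growth.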

Common to all, as to assay: DTP human tumour cell line panel, 48 h
The subject of test [1] is EKVX NSCLC.
Test [2] concerns HCC-2998 colon.
The subject of test [3] is KM12 colon.
Test [4] relates to LOX IMVI melanoma.
The subject of test [5] is M14 melanoma.
Test [6] deals with NCI-H23 lung.
For test [7], the system named is OVCAR-4 ovarian.
The subject of test [8] is RPMI-8226 leukemia.
Test [9] deals with SK-OV-3 ovarian.
In test [10] the test system is UACC-62 melanoma.

In the case of `c1cc2[nH]ncc2cc1-c1nc2ccc3[nH]ncc3c2c2c1CCCC2`, the GI50 (as a rule, the concentration that inhibits growth by half) is 1.91 µM in [1]; 1.98 µM in [2]; 0.563 µM in test [3]; 0.811 µM in test [4]; 0.523 µM in test [5]; 1.83 µM in [6]. Moreover, the GI50 is 1.97 µM in test [7], 0.799 µM in test [8], 0.781 µM in test [9] and 0.425 µM in [10]. Moreover, the TGI – broadly, the concentration giving total growth inhibition – in test [1] was found to be 9.15 µM; in test [2], 9.79 µM; in [3], 11.5 µM; in [4] it was 4.54 µM; in test [5], 10.8 µM; in [6] it was 7.44 µM. Further, the TGI in test [7] stood at 14.4 µM; in test [8], 4.9 µM; in test [10], 3.53 µM.

Take `C[C@H](Nc1ncnc2nc[nH]c12)c1cc2ccc(F)cc2nc1-c1ccccn1`: the GI50 in [1] is greater than 70.7 µM; in test [2] it was greater than 100 µM; in [3], greater than 100 µM; in test [4], greater than 86.2 µM; in [5], greater than 100 µM; in test [6], greater than 100 µM. The GI50 in test [7] is greater than 100 µM; in test [8] it was greater than 100 µM; in [9], 48.3 µM; in test [10], 9.29 µM. The total growth inhibition concentration (TGI) in test [1], in test [2], in test [3], in test [4], in test [5] and in test [6] was greater than 100 µM throughout. The TGI in test [7], in test [8], in test [9] and in [10] was greater than 100 µM in each case.

In the case of `COc1c(C(=O)c2ccc([N+](=O)[O-])cc2)cc(C(C)(C)C)cc1C(C)(C)C`, the concentration for total growth inhibition (TGI) is greater than 100 µM in [1]; 66.9 µM in [2]; greater than 100 µM in test [3]; 27.7 µM in test [4]; greater than 100 µM in test [5]; greater than 100 µM in test [6]. Moreover, the concentration for total growth inhibition (TGI) in test [7] is greater than 100 µM; in test [8], 31.7 µM; in test [9], greater than 100 µM; in test [10], 36.2 µM.

With `COc1ccc(C(SCC(N)C(=O)O)(c2ccccc2)c2ccccc2)cc1` (stereo not drawn), the GI50 was 0.436 µM in test [1]; 0.246 µM in test [2]; 0.239 µM in test [3]; 0.668 µM in test [4]; 0.0309 µM in test [5]; 0.414 µM in test [6]. The GI50 is 29.7 µM in [7], 0.0419 µM in [8], 0.19 µM in test [9] and 0.171 µM in [10]. For the same compound, the total growth inhibition concentration (TGI) in test [1] is greater than 100 µM; in [2], 12.2 µM; in test [3], 21.3 µM; in [4], 25.7 µM; in [5], 0.126 µM; in test [6] it was greater than 87.4 µM. Further, the TGI is greater than 100 µM in test [7], greater than 56.5 µM in test [8], greater than 100 µM in [9] and greater than 56.7 µM in [10].

Take `C[C@]12CC[C@H](O)C[C@H]1CC[C@@H]1[C@@H]2CC[C@]2(C)[C@@H](C3=CC(=O)OC3)[C@@H](O)C[C@]12O`: the TGI in test [1] worked out at 2.78 µM; in test [2], 6.7 µM; in test [3], 18.2 µM; in [4] it was 12 µM; in test [5], 5.58 µM; in test [6], 2.47 µM. For the same compound, the concentration for total growth inhibition (TGI) worked out at 3.16 µM in test [7], 8.07 µM in [8], 6.73 µM in test [9] and 6.82 µM in test [10].

In the case of `COc1cc(OC)c(/C=C\c2ccnc3ccccc23)c(OC)c1`, the concentration for total growth inhibition (TGI) in [1] was found to be 17.7 µM; in test [2], 23.9 µM; in test [3], 16.5 µM; in test [4], 13.6 µM; in test [5] it was 15.2 µM; in [6], 22.1 µM. The TGI in test [7] worked out at 16.5 µM; in [8] it was 13 µM; in test [9] it was 20.5 µM; in test [10] it was 14.6 µM.

For the compound `C=CC(C1=CC(=O)C(OC)=CC1=O)c1ccccc1` (stereo not drawn), the TGI came to 30.5 µM in test [1]; 30.7 µM in [2]; 34.6 µM in test [3]; 31.7 µM in test [4]; 37.7 µM in test [5]; 32.5 µM in test [6]. Moreover, the TGI in [7] is 30.1 µM; in [8] it was greater than 67.6 µM; in test [9], 42.2 µM; in test [10], 29 µM.

For the compound `CC1C[C@H](C)CC(C(O)CC2CC(=O)N(Cc3ccccc3)C(=O)C2)C1O` (stereo partly drawn), the TGI in test [1], in test [2], in test [3], in test [4], in test [5] and in test [6] was greater than 100 µM in each case. Also, the total growth inhibition concentration (TGI) in test [7], in test [8], in [9] and in [10] was greater than 100 µM in each case.

Consider `COC(=O)/C(=N\Nc1nc(=S)[nH]n1N)C(C#N)c1ccccc1` (stereo not drawn), for which the concentration for total growth inhibition (TGI) in [1], in test [2], in [3], in test [4], in test [5] and in test [6] was greater than 100 µM each time. Also, the concentration for total growth inhibition (TGI) in test [7], in [8], in test [9] and in test [10] was greater than 100 µM in each case.

With `CC(C)(C)C(=O)OCOP(=O)(OCOC(=O)C(C)(C)C)C1CC(O)N(O)C1=O` (stereo not drawn), the GI50 in [1] is 10.8 µM; in test [2], 4.04 µM; in [3], 4.79 µM; in test [4], 3.35 µM; in test [5], 8.44 µM; in test [6], 3.67 µM. The GI50 was 17.5 µM in test [7], 2.88 µM in test [8], 25.8 µM in test [9] and 2.37 µM in test [10]. In addition, the concentration for total growth inhibition (TGI) was greater than 100 µM in [1]; 49 µM in test [2]; greater than 100 µM in test [3]; greater than 100 µM in [4]; greater than 100 µM in test [5]; 25.3 µM in [6]. Besides, the TGI is greater than 100 µM in [7], 14.6 µM in [8], greater than 100 µM in test [9] and 7.4 µM in [10].

Consider `CC(=O)c1cc(C(=O)c2ccc3c(c2)Sc2ccccc2N3)c2c(C)cc(C)cn12`, for which the GI50 in [1] was 0.636 µM; in test [2] it was 0.494 µM; in test [3], 0.353 µM; in [4], 0.73 µM; in [5], 0.253 µM; in test [6], 0.482 µM. Also, the GI50 was 2.2 µM in test [7], 0.361 µM in [8], 0.342 µM in test [9] and 0.254 µM in [10]. For the same compound, the concentration for total growth inhibition (TGI) in [1] was greater than 100 µM; in [2] it was greater than 100 µM; in test [3] it was greater than 46.7 µM; in test [4], greater than 100 µM; in [5], greater than 100 µM; in test [6] it was greater than 100 µM. Further, the TGI in test [7] is greater than 100 µM; in test [8], greater than 27.9 µM; in [10] it was greater than 100 µM.

Take `N/N=C(\C(=O)Nc1ccc(Cl)cc1Cl)C(c1cnc2ccccc2n1)[N+](=O)[O-]` (stereo not drawn): the TGI in test [1], in test [2], in test [3], in test [4], in [5] and in test [6] was greater than 100 µM throughout. The total growth inhibition concentration (TGI) in [7], in [8], in test [9] and in [10] was greater than 100 µM each time.

Turning to `O=C1Nc2c(C(F)(F)F)cccc2[C@@]1(c1ccc(O)cc1)c1ccc(OC(F)(F)F)cc1`, the 50% growth inhibitory concentration (GI50) in test [1] is 0.0134 µM; in test [2], less than 0.01 µM; in [3], less than 0.0143 µM; in test [4], less than 0.01 µM; in [5], 0.0537 µM; in [6] it was less than 0.01 µM. For the same compound, the GI50 in test [7] was less than 0.01 µM; in test [8], 8.99 µM; in test [9], 0.0415 µM; in test [10], 0.0213 µM. Moreover, the TGI in test [1] was 0.0351 µM; in test [2] it was 0.0131 µM; in [3], 3.28 µM; in test [4] it was less than 0.0137 µM; in [5] it was 14.1 µM; in test [6], less than 0.0135 µM. Besides, the total growth inhibition concentration (TGI) is less than 0.01 µM in [7], 50.8 µM in test [8], 0.38 µM in [9] and 0.071 µM in test [10].

Consider `O=C(c1ccccc1)N1C2CCC1C(C(F)(F)F)=C2C(F)(F)F`, for which the concentration for total growth inhibition (TGI) in [1], in test [2], in test [3], in [4], in test [5] and in [6] was greater than 100 µM each time. Also, the TGI in test [7], in test [8], in test [9] and in [10] was greater than 100 µM throughout.

As to `CC1=NOC(=O)/C1=C/c1cccc2ccccc12`, the TGI in test [1], in [2], in test [3], in [4], in test [5] and in test [6] was greater than 100 µM throughout. Also, the concentration for total growth inhibition (TGI) in test [7], in test [8], in test [9] and in [10] was greater than 100 µM in each case.

For the compound `O=C(O)C[C@H]1CCCCC12CCOC2=O` (stereo partly drawn), the TGI in test [1], in [2], in test [3], in test [4], in test [5] and in test [6] was greater than 100 µM each time. Besides, the total growth inhibition concentration (TGI) in [7], in test [8], in [9] and in test [10] was greater than 100 µM each time.

Take `C=CC(=O)NCc1cccc(Nc2ncc(Br)c(NCCCNC(=O)C3CCC3)n2)c1`: the GI50 was 1.59 µM and 2.59 µM in [1]; 1.83 µM and 3.03 µM in test [2]; 0.806 µM and 0.861 µM in test [3]; 0.337 µM and 0.246 µM in test [4]; 1.86 µM and 1.19 µM in test [5]; 1.5 µM and 1.19 µM in test [6]. Besides, the GI50 is 1.67 µM and 1.2 µM in test [7]; 1.92 µM and 1.88 µM in [8]; 0.9 µM in [9]; 2.3 µM and 2.9 µM in test [10]. Moreover, the TGI in test [1] is 6.07 µM and 14.9 µM; in test [2], 5.27 µM and 10.1 µM; in test [3], 12.5 µM and > 25 µM; in test [4], 4.21 µM and 4.58 µM; in [5], 10.2 µM and 5.91 µM; in [6], 8.7 µM and 7.85 µM. The TGI is 6.07 µM and 12.8 µM in test [7]; 8.19 µM and > 25 µM in test [8]; 9.84 µM in test [9]; 5.23 µM and 7.37 µM in test [10].
